The structures appear in SMILES notation. pIC50: −log10 of the molar value. Bounds are passed on as bounds.

Among the data in patent US7629377B2, “Substituted naphthyl indole derivatives as inhibitors of plasminogen activator inhibitor type-1 (PAI-1)” (Wyeth, priority 2008, dated 2009) are IC50, melting point and inhibition values, retold here.

For one data set, the target named is human PAI-1 (Homo sapiens, UniProt P05121). Nature of the data set: Assay for Determining IC50 of Inhibition of PAI-1 (Antibody Assay). It counts as biochemical. Particulars: for pIC50: Antibody Assay (footnote a), active PAI-1 bound to tPA-coated plate, pH 7.5; for inhibition at 25 µM: 25 μM test compound, footnote a (Antibody Assay). The protocol:
Assay for Determining IC50 of Inhibition of PAI-1
This assay is based upon the non-SDS dissociable interaction between tPA and active PAI-1. Assay plates are initially coated with human tPA (10 μg/ml). Test compounds are dissolved in DMSO at 10 mM, then diluted with physiologic buffer (pH 7.5) to a final concentration of 1-50 μM. Test compounds are incubated with human PAI-1 (50 ng/ml) for 15 minutes at room temperature. The tPA-coated plate is washed with a solution of 0.05% Tween 20 and 0.1% BSA, then the plate is blocked with a solution of 3% BSA. An aliquot of the test compound/PAI-1 solution is then added to the tPA-coated plate, incubated at room temperature for 1 hour, and washed. Active PAI-1 bound to the plate is assessed by adding an aliquot of a 1:1000 dilution of the 33B8 monoclonal antibody against human PAI-1, and incubating the plate at room temperature for 1 hour (Molecular Innovations, Royal Oak, Mich. The plate is again washed, and a solution of goat anti-mouse IgG-alkaline phosphatase conjugate is added at a 1:50,000 dilution in goat serum. The plate is incubated 30 minutes at room temperature, washed, and a solution of alkaline phosphatase substrate is added. The plate is incubated 45 minutes at room temperature, and color development is determined at OD405 nm. The quantitation of active PAI-1 bound to tPA at varying concentrations of test compound is used to determine the IC50. Results are analyzed using a logarithmic best-fit equation. The assay sensitivity is 5 ng/ml of human PAI-1 as determined from a standard curve ranging from 0-100 ng/ml.

For data set [1], the target named is T1, recombinant human plasminogen activator inhibitor-1 (PAI-1) (Homo sapiens, UniProt P05121).
T1 construct: purchased Molecular Innovations, Royal Oak, Mich
T1 sequence (P05121 24-402): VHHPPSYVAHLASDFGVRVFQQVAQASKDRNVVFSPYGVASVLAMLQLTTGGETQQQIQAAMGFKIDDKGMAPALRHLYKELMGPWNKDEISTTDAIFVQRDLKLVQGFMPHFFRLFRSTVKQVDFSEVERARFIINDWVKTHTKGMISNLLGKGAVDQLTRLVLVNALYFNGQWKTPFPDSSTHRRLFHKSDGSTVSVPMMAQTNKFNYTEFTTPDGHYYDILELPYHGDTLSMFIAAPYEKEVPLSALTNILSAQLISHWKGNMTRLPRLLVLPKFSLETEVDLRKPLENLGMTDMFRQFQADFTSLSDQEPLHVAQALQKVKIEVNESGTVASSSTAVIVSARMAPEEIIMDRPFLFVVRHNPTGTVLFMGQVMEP
Nature of the data set: modification of the Primary Screen for PAI-1 Inhibition. Particulars: modification of the Primary Screen (footnote b); residual tPA activity, Spectrozyme-tPA. In kind it is biochemical. The protocol:
Primary Screen for the PAI-1 Inhibition
Test compounds are dissolved in DMSO at a final concentration of 10 mM, then diluted […] in physiologic buffer. The inhibitory assay is initiated by the addition of test compound (1-100 μM final concentration, maximum DMSO concentration of 0.2%) in a pH 6.6 buffer containing 140 nM recombinant human plasminogen activator inhibitor-1 (PAI-1; Molecular Innovations, Royal Oak, Mich. Following a 1 hour incubation at room temperature, 70 nM of recombinant human tissue plasminogen activator (tPA) is added, and the combination of test compound, PAI-1 and tPA is incubated for an additional 30 minutes. Following the second incubation, Spectrozyme-tPA (American Diagnostica, Greenwich, Conn.), a chromogenic substrate for tPA, is added and absorbance read at 405 nm at 0 and 60 minutes. Relative PAI-1 inhibition is equal to the residual tPA activity in the presence of test compound and PAI-1. Control treatments include the complete inhibition of tPA by PAI-1 at the molar ratio employed (2:1), and the absence of any effect of the test compound on tPA alone.

Chain of human PAI-1 (P05121 24-402): as above

By pIC50 is commonly meant the negative decadic logarithm of the IC50, by convention in mol/L. As for `CCCCCc1c(-c2ccc3cc(OCc4nnn[nH]4)ccc3c2)n(Cc2ccccc2)c2ccccc12` [Example 1, 1-Benzyl-3-pentyl-2-[6-(1H-tetraazol-5-ylmethoxy)-2-naphthyl]-1H-indole], the pIC50 at human PAI-1 is 5.01.
A word on the melting point: it is the temperature, or range, at which the solid turns liquid. For the molecule `CCCCCc1c(-c2ccc3c(Br)c(OCc4nnn[nH]4)ccc3c2)n(Cc2ccccc2)c2ccccc12` [Example 2, 1-Benzyl-2-[5-bromo-6-(1H-tetraazol-5-ylmethoxy)-2-naphthyl]-3-pentyl-1H-indole], the melting point is > 70 °C (dec.). Moreover, the pIC50 in data set [1] is 5.06.
Molecule `CCCCCc1c(-c2ccc3cc(OCc4nnn[nH]4)ccc3c2)n(C)c2ccccc12` [Example 3, 1-Methyl-3-pentyl-2-[6-(1H-tetraazol-5-ylmethoxy)-2-naphthyl]-1H-indole] registered a melting point of 120 to 122 °C. Besides, the pIC50 on human PAI-1 was 4.79.
Turning to `CCCCCc1c(-c2ccc3c(Br)c(OCc4nnn[nH]4)ccc3c2)n(C)c2ccccc12` [Example 4, 2-[5-Bromo-6-(1H-tetraazol-5-ylmethoxy)-2-naphthyl]-1-methyl-3-pentyl-1H-indole], the melting point is > 125 °C (dec.). Moreover, in data set [1], the negative-log IC50 (pIC50) was 4.76.
The like results for `CCCCCc1c(-c2ccc3cc(OCc4nnn[nH]4)ccc3c2)n(C(C)=O)c2ccccc12` [Example 5, 1-Acetyl-3-pentyl-2-[6-(1H-tetraazol-5-ylmethoxy)-2-naphthyl]-1H-indole] were, in that order, > 95 °C (dec.) and 5.04.
A word on the inhibition: it is how much of the control response was suppressed. High values mean a response far below the control, low ones a response near the control. Regarding `CCCCCc1c(-c2ccc3c(Br)c(OCc4nnn[nH]4)ccc3c2)n(C(C)=O)c2ccccc12` [Example 6, 1-Acetyl-2-[5-bromo-6-(1H-tetraazol-5-ylmethoxy)-2-naphthyl]-3-pentyl-1H-indole], the melting point was > 79 °C (dec.). The molecule also had an inhibition at 25 µM against human PAI-1 of 16%.
On to `CCCCCc1c(-c2ccc3cc(OCc4nnn[nH]4)ccc3c2)n(Cc2ccccc2C(F)(F)F)c2ccccc12` [Example 7, 3-Pentyl-2-[6-(1H-tetraazol-5-ylmethoxy)-2-naphthyl]-1-[2-(trifluoromethyl)benzyl]-1H-indole], for which the melting point is > 100 °C (dec.). At human PAI-1, this molecule had a negative-log IC50 (pIC50) of 5.28.
As for `CCCCCc1c(-c2ccc3c(Br)c(OCc4nnn[nH]4)ccc3c2)n(Cc2ccccc2C(F)(F)F)c2ccccc12` [Example 8, 2-[5-Bromo-6-(1H-tetraazol-5-ylmethoxy)-2-naphthyl]-3-pentyl-1-[2-(trifluoromethyl)benzyl]-1H-indole], the melting point is > 85 °C (dec.). The molecule further had an inhibition at 25 µM against human PAI-1 of 57%.
For the molecule `CCCCCc1c(-c2ccc3cc(OCc4nnn[nH]4)ccc3c2)n(Cc2ccc(C(C)(C)C)cc2)c2ccccc12` [Example 9, 1-(4-tert-Butylbenzyl)-3-pentyl-2-[6-(1H-tetraazol-5-ylmethoxy)-2-naphthyl]-1H-indole], the melting point was > 95 °C (dec.). Also, the pIC50 at human PAI-1 was 4.60.
Turning to `CCCCCc1c(-c2ccc3c(Br)c(OCc4nnn[nH]4)ccc3c2)n(Cc2ccc(C(C)(C)C)cc2)c2ccccc12` [Example 10, 2-[5-Bromo-6-(1H-tetraazol-5-ylmethoxy)-2-naphthyl]-1-(4-tert-butylbenzyl)-3-pentyl-1H-indole], the melting point was > 90 °C (dec.). The inhibition at 25 µM at human PAI-1 came to 60%.
On to `CCCCCc1c(-c2ccc3c(Br)c(OCC(=O)O)ccc3c2)n(C)c2ccccc12` [Example 11, {[1-Bromo-6-(1-methyl-3-pentyl-1H-indol-2-yl)-2-naphthyl]oxy}acetic acid], for which the melting point was > 73 °C (dec.). On human PAI-1, this molecule gave a pIC50 of 4.97.
